# How the values were obtained:
# [1] = Stability of ilaprazole racemate stock solution; format: physicochemical; settings: stock solution in acetonitrile, −80 °C for 15 days
# CYP3A = settings: cited from earlier work
structure (smiles),measurement,setting,value
"COc1ccnc(C[S+]([O-])c2nc3cc(-n4cccc4)ccc3[nH]2)c1C (racemic) [ilaprazole racemate, ilaprazole]",Stability of stock solution (in words),[1],stable
same,Metabolizing enzyme,CYP3A,mainly metabolized by CYP3A

# — paper PMC7775851 (Journal of Pharmaceutical Analysis, 2019)
